Data on six molecules can be found in EP1037627B1, “USE OF 11-(3-DIMETHYLAMINOPROPYLIDENE)-6,11-DIHYDRODIBENZ[B,E]OXEPIN-2-ACETIC ACID AND OF PHARMACEUTICALLY ACCEPTABLE SALTS THEREOF FOR THE MANUFACTURE OF A MEDICAMENT FOR THE TREATMENT OF NON-[…] OPHTHALMIC INFLAMMATORY DISORDERS AND FOR THE PREVENTION OF OCULAR NEOVASCULARIZATION” (Alcon Laboratories, Inc., priority 1998, dated 2000).

Assay [1] relates to IL-8 Secretion in Human Conjunctival Epithelial Cells. The experiment in a line: Inhibition of histamine-stimulated IL-8 secretion in cultured human conjunctival epithelial cells (ELISA). It counts as cell-based. Particulars: for IC50: Homo sapiens, read-out: IL-8 IC50. The text has this: (§1) Methods detailing the preparation of primary epithelial cell cultures and cytokine release studies using these cells have been described. See […], et al., "Secretion of proinflammatory cytokines by human conjunctival epithelial cells," Ocul Immunol Inflamm., 5:117-128 (1997). Briefly, cultures of human conjunctival epithelial cells were initiated from donor tissues obtained within eight hours post mortem by various eye banks. The tissues were enzymatically digested overnight. Epithelial cells were gently scraped from the tissue surface, dissociated into a single cell suspension, and cultured in keratinocyte growth medium (Clonetics® , San Diego, CA). Cells were used only through passage 6. Cultures were maintained in a preconfluent state to prevent differentiation. Cells were identified as epithelial by positive keratin staining. […] Cells were plated at 2x10^4 cells/well and cultured overnight at 5% CO2/37°C. The following day, fresh medium containing test compound was added directly to wells and the cells were incubated for 30 minutes prior to 24-hour stimulation with histamine (30 μM). Three separate culture wells were used for each treatment group. At harvest, supernatants were collected, centrifuged at 200 x g, and stored at -20°C. Samples were analyzed for IL-6 and IL-8 by ELISA (R&D Systems, Minneapolis, MN) as directed by the manufacturer. The sensitivities of each ELISA are as follows: […] The antagonist potency (IC50) was defined as the concentration of the drug required to produce 50% inhibition of the agonist-stimulated functional response. Data derived from the cytokine assays were calculated as mean and standard error (SEM) values which represent the variability among identically treated culture wells. The dose-dependent effect of pharmacological agents and IC50's were determined by linear regression. Data are expressed as mean ± S.E.M. from 3 - 5 independent experiments.
(ELISA stands for enzyme-linked immunosorbent assay.)

Assay [2] deals with IL-6 Secretion in Human Conjunctival Epithelial Cells. The experiment in a line: Inhibition of histamine-stimulated IL-6 secretion in cultured human conjunctival epithelial cells (ELISA). It counts as cell-based. Particulars: for IC50: Homo sapiens, read-out: IL-6 IC50.
Source text: as §1

Another assay addresses histamine H1-receptor. The following applies: published values (Sharif et al. 1994; Yanni et al. 1997), read-out: H1 Binding Ki, cited from earlier work.
Where [3] appears, read: HCE cells, 30 minutes preincubation with test compound, then 24-hour stimulation with histamine (30 µM), ELISA.
[4] abbreviates: IL-6 and IL-8 secretion IC50 compared with H1 binding affinity.
Setting [5] is: HCE exposed to 30 µM of histamine.

“And” between values parts separate entries of the source, which are not always exact repeats. Equal values may be shown once. Where a name gives a salt, the structure may show the parent alone. Read-outs that look alike come from different tables or passages of the source.

Regarding `C[C@@H]1CN([C@H]2CC[C@](C#N)(c3ccc(F)cc3)CC2)CC[C@]1(C(=O)O)c1ccccc1` [Levocabastine, (-)-traps-1-[cis-4-Cyano-4-(p-fluorophenyl)cyclohexyl]-3-methyl-4-phenylisonipecotic acid monohydrochloride], the IC50 in assay [1] (setting [3]) was found to be 0.0119 µM; in assay [2] (setting [3]) it was 0.0251 µM. The Ki on histamine H1-receptor was 0.0526 µM.
With `CN(C)CCC(c1ccccc1)c1ccccn1` (stereo not shown) [Pheniramine, N,N-Dimethyl-γ-phenyl-2-pyridine-propanamine], the IC50 in assay [1] (setting [3]) is 1.22 µM; in assay [2] (setting [3]), 4.83 µM. The “less potent inhibitors of IL-6 and IL-8 secretion than predicted from their histamine H1-receptor binding affinities” value in assay [2] (setting [4]) was 20 - 140 fold. Moreover, the Ki at histamine H1-receptor (listed as pheniramine) is 0.032 to 0.039 µM; at histamine H1-receptor it was 0.0339 µM.
For the molecule `CN(C)CC/C=C1/c2ccccc2COc2ccc(CC(=O)O)cc21` [Olopatadine, Z-11-(3-Dimethylaminopropylidene)-6,11-dihydrodibenz[b,e]oxepin-2-acetic acid], the IC50 in assay [1] (HCE) was 0.0017 µM; in assay [2] (HCE), 0.0055 µM. The “more potent as an inhibitor of cytokine secretion than predicted from binding data” value in assay [2] (setting [4]) is given as “approximately 10 fold”. Besides, at histamine H1-receptor, the Ki was 0.036 µM and 0.032 to 0.039 µM.
As to `c1ccc(CN(CC2=NCCN2)c2ccccc2)cc1` [Antazoline, 4,5-Dihydro-N-phenyl-N-(phenylmethyl)-1 H-imidazole-2-methanamine], the IC50 in assay [1] (setting [3]) amounted to 0.652 µM; in assay [2] (setting [3]), 1.01 µM. In addition, the “less potent inhibitors of IL-6 and IL-8 secretion than predicted from their histamine H1-receptor binding affinities” value in assay [2] (setting [4]) is 20 - 140 fold. The Ki on histamine H1-receptor (listed as antazoline) is 0.032 to 0.039 µM; on histamine H1-receptor, 0.0384 µM.
For the molecule `NCCc1c[nH]cn1` [histamine], the “increased IL-8 secretion” value in assay [1] (setting [5]) was 1.80 ± 0.28 fold above basal levels. Besides, the “increased IL-6 secretion” value in assay [2] (setting [5]) stood at 1.59 ± 0.19 fold above basal levels.
As to `CCOCCn1c(N2CCCN(C)CC2)nc2ccccc21` [Emedastine, 1H-Benzimidazole,1-(2-ethoxyethyl)-2-(hexahydro-4-methyl-1H-1,4-diazepin-1-yl),(E)-2-butenedioate (1:2)], the figures for the IC50 in assay [1] (setting [3]) and in assay [2] (setting [3]) were 0.004 µM and 0.0025 µM, respectively. The Ki at histamine H1-receptor was 0.00122 µM.

The IC50 is the point on the concentration scale where inhibition reaches its midpoint. In general, Ki refers to the equilibrium dissociation constant of an inhibitor or competing ligand from its target.
